Laboratory results: PubChem BioAssay (NCI)
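Following 48 hours of exposure in 96-well plates, responses at five concentrations were used to interpolate endpoints linearly. The concentration for full growth arrest is given as TGI.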

Columns and labels:
Experiment in all cases: NCI tumour cell line growth inhibition, 48 h
[1] = system: SNB-75 CNS
[2] = system: OVCAR-8 ovarian
[3] = system: NCI/ADR-RES ovarian
[4] = system: RPMI-8226 leukemia
[5] = system: HOP-92 NSCLC
[6] = system: M14 melanoma
[7] = system: MDA-MB-435
[8] = system: NCI-H460 lung
[9] = system: HCT-15 colon
[10] = system: HOP-62 NSCLC
[11] = system: IGROV1 ovarian
[12] = system: NCI-H23 lung
[13] = system: UACC-257 melanoma
[14] = system: SK-MEL-5 melanoma
[15] = system: DU-145 prostate
[16] = system: ACHN renal
[17] = system: CCRF-CEM leukemia
[18] = system: MOLT-4 leukemia
[19] = system: CAKI-1 renal
[20] = system: HCC-2998 colon
[21] = system: SR leukemia
[22] = system: TK-10 renal
[23] = system: OVCAR-4 ovarian
[24] = system: NCI-H522 lung
[25] = system: HL-60(TB) leukemia
[26] = system: HCT-116 colon
[27] = system: SW-620 colon
[28] = system: OVCAR-3 ovarian
[29] = system: K-562 leukemia
[30] = system: HT29 colon
[31] = system: MDA-MB-231 breast
[32] = system: SK-OV-3 ovarian
[33] = system: SK-MEL-28 melanoma
[34] = system: COLO 205 colon
[35] = system: SF-295 CNS
[36] = system: OVCAR-5 ovarian
[37] = system: LOX IMVI melanoma
[38] = system: SN12C renal
[39] = system: T-47D breast
[40] = system: NCI-H226 lung
[41] = system: SK-MEL-2 melanoma
[42] = system: A549 NSCLC
[43] = system: SNB-19 CNS
[44] = system: UO-31 renal
[45] = system: U251 CNS
[46] = system: HS 578T breast
[47] = system: PC-3 prostate
[48] = system: MDA-N
[49] = system: MALME-3M melanoma
[50] = system: SF-268 CNS
[51] = system: RXF 393 renal
[52] = system: KM12 colon
[53] = system: SF-539 CNS
[54] = system: EKVX NSCLC
[55] = system: UACC-62 melanoma
[56] = system: 786-0 renal
[57] = system: MCF7 breast
[58] = system: A498 renal

CCP(=O)(CC)C(Cl)(Cl)C(=O)NC
TGI [1]: > 100 µM | TGI [2]: > 100 µM | TGI [3]: > 100 µM | TGI [4]: > 100 µM | TGI [5]: > 100 µM | TGI [6]: > 100 µM | TGI [7]: > 100 µM | TGI [8]: > 100 µM | TGI [9]: > 100 µM | TGI [10]: > 100 µM | TGI [11]: > 100 µM | TGI [12]: > 100 µM | TGI [13]: > 100 µM | TGI [14]: > 100 µM | TGI [15]: > 100 µM | TGI [16]: > 100 µM | TGI [17]: > 100 µM | TGI [18]: > 100 µM | TGI [19]: > 100 µM | TGI [20]: > 100 µM | TGI [21]: > 100 µM | TGI [22]: > 100 µM | TGI [23]: > 100 µM | TGI [24]: > 100 µM | TGI [25]: > 100 µM | TGI [26]: > 100 µM | TGI [27]: > 100 µM | TGI [28]: > 100 µM | TGI [29]: > 100 µM | TGI [30]: > 100 µM | TGI [31]: > 100 µM | TGI [32]: > 100 µM | TGI [33]: > 100 µM | TGI [34]: > 100 µM | TGI [35]: > 100 µM | TGI [36]: > 100 µM | TGI [37]: > 100 µM | TGI [38]: > 100 µM | TGI [39]: > 100 µM | TGI [40]: > 100 µM | TGI [41]: > 100 µM | TGI [42]: > 100 µM | TGI [43]: > 100 µM | TGI [44]: > 100 µM | TGI [45]: > 100 µM | TGI [46]: > 100 µM | TGI [47]: > 100 µM | TGI [48]: > 100 µM

CCCCc1cc2c(cc1O)CCC1C2CC[C@@]2(C)C1CC[C@@H]2O (stereo not given in full)
TGI [1]: 31.7 µM | TGI [2]: 43.4 µM | TGI [3]: 38.5 µM | TGI [4]: 39.1 µM | TGI [5]: 39.3 µM | TGI [6]: 41.7 µM | TGI [7]: 36.5 µM | TGI [8]: 63.5 µM | TGI [9]: > 100 µM | TGI [49]: 39.2 µM | TGI [10]: 57.3 µM | TGI [11]: 49.9 µM | TGI [12]: 41.3 µM | TGI [13]: 35.9 µM | TGI [14]: 39.2 µM | TGI [15]: 35.3 µM | TGI [16]: 29.7 µM | TGI [17]: 56.7 µM | TGI [18]: 28.2 µM | TGI [19]: 52.6 µM | TGI [50]: 89 µM | TGI [20]: 50.9 µM | TGI [21]: 51.3 µM | TGI [22]: 33.7 µM | TGI [51]: 22.2 µM | TGI [23]: 37.3 µM | TGI [52]: 32.4 µM | TGI [24]: 43.7 µM | TGI [26]: 36.6 µM | TGI [27]: 59.2 µM | TGI [28]: 29.7 µM | TGI [29]: 43.6 µM | TGI [30]: 50.3 µM | TGI [31]: 62.1 µM | TGI [53]: 59.3 µM | TGI [32]: 37.1 µM | TGI [33]: 45.1 µM | TGI [34]: 49.5 µM | TGI [35]: 35.8 µM | TGI [36]: 36.5 µM | TGI [54]: 33.6 µM | TGI [37]: 39.3 µM | TGI [38]: 39.3 µM | TGI [55]: 29.5 µM | TGI [56]: 73.1 µM | TGI [39]: 35.8 µM | TGI [57]: 30.4 µM | TGI [40]: 40.6 µM | TGI [41]: 38.1 µM | TGI [42]: 29.3 µM | TGI [43]: > 100 µM | TGI [44]: 38 µM | TGI [58]: 57.2 µM | TGI [45]: 64.7 µM | TGI [46]: 43.8 µM | TGI [47]: 35.3 µM | TGI [48]: 51.2 µM
